1 molecule from patent US20160130224A1, “Novel Pyrrole Derivatives” (priority 2013, published 2016) can be followed below.

The term IC50 denotes the midpoint of a concentration-inhibition curve.

The target in series [1] is T1, pneumolysin (Streptococcus pneumoniae serotype 2, UniProt Q04IN8). Put plainly: Inhibition of the haemolytic activity of pneumolysin (sheep erythrocytes). The following applies: pneumolysin at LD100, sheep erythrocytes, 37° C., read-out: IC50. The class given is cell-based. On the procedure: The basis of this assay is that when pneumolysin is added to red blood cells, it induces their lysis and leads to the release of haemoglobin. In the presence of an inhibitory compound, pneumolysin-induced lysis is abolished, the red blood cells pellet at the bottom of the microtitre plate well and the supernatant is clear. However, if the compound is not inhibitory, the red blood cells are lysed and haemoglobin is released into the supernatant.
Test compound solutions (typically at 5 mM in DMSO) were diluted 1:1 in 100% DMSO. The compounds were then two-fold serially diluted in 100% DMSO across 11 wells of 96-well round-bottomed microtitre plate. PBS was then added to all the wells to achieve a 1:10 dilution of the compound in PBS. Pneumolysin was then added at a concentration equal to its LD100. Plates were then incubated at 37° C. for 30-40 min. After the incubation period, an equal volume of 4% (v/v) sheep erythrocyte suspension was added to each well and the plates incubated again at 37° C., for at least 30 min. Controls with only erythrocytes in PBS (control for no lysis) or erythrocytes plus pneumolysin (control for lysis) were prepared following the same procedure. Following the incubation with the erythrocytes, the Absorbance at 595 nm of each well was measured and the data used to determine the IC50 for each test compound. The IC50 values were determined using non-linear regression curve fitting. For that, the Log of the concentrations of the test compound was plotted against the percentage inhibition, estimated from the A595 values, followed by fitting a Hill Slope to the data.

Series [2] addresses T1, pneumolysin. Description: Inhibition of pneumolysin-induced lactate dehydrogenase (LDH) release from A549 human lung epithelial cells. It is filed as cell-based. As for the experimental part:
Pneumolysin induces the release of lactate dehydrogenase (LDH) from human monocytes and lung epithelial cells: a phenomenon that is indicative of plasma membrane damage or rupture [Infect. Immun. (2002) 70 1017-1022].
Human lung epithelial cells (A549) were seeded in flat-bottomed 96-well tissue culture plates and grown in RPMI 1640 medium supplemented with Glutamine, at 37° C., 5% CO2, for 24 h.
Before use, the cells were washed with PBS. Test compound dilutions were incubated with pneumolysin as described in Section A, then transferred to wells containing the human lung epithelial cells and the plates were incubated at 37° C., 5% CO2, for 30 min. The following controls were included on the plate (1) Negative controls, called low control (PBS only) to measure the natural release of LDH from the cells in culture, (2) positive controls (1% (v/v) Triton-X in PBS) to measure the maximum release of LDH from the cells (3) Pneumolysin solution only to measure pneumolysin-induced LDH release, (4) Test compound solution to assess the toxicity of the compound alone. […] Absorbance at 490 nm and 655 nm was then measured. The percentage of LDH release induced by pneumolysin in the presence and absence of test compounds was plotted against the Log of the concentration of the compound and the IC50 was determined, as described above in the inhibition of haemolysis assay, Section A.

For series [3], the target named is T1, pneumolysin. Description: Ex vivo meningitis assay: effect of pneumolysin on ciliary function of cultured ependymal cells. The class given is cell-based. The following applies: rat ependymal cells; compound 1.56 μM; recorded over 30 min; FIG. 2. From the text:
The ependymal ciliated cells line the cerebral ventricles of the brain and the central canal of the spinal cord and are covered with cilia responsible for the circulation of the cerebrospinal fluid (CSF) around the central nervous system. This layer acts as a selective brain barrier to and from the cerebrospinal fluid and plays a role in controlling the CSF volume. To study if the inhibitors prevent the damage caused by pneumolysin on the ependymal layer, a rat ex vivo model of meningitis was used. This model is based on culturing and differentiating ciliated ependymal cells from neonate rat brains, which recreate the in vivo situation, where cells lining the brain ventricles, are exposed to S. pneumoniae and its toxic products.
Ependymal cell cultures were prepared by the method previously described [Microb. Pathog. (1999) 27 303-309]. Tissue culture trays were coated with bovine fibronectin and incubated at 37° C. in 5% (v/v) CO2 for 2 h before use. […]
After approximately two weeks, the cells were fully ciliated and ready for experiments. […] Beating cilia were recorded before and after exposure over 30 min, with a digital high-speed video camera at a rate of 500 frames/s. The recorded video sequences were played back at reduced frame rates and the ciliary beat frequency (CBF) was determined by the following equation: […]

Series [4] can be described thus: Solubility testing in PBS or 0.9% saline. The following applies: result in words. The class given is physicochemical. On the procedure:
Solubility studies were performed by charging a vial with 5-10 mg of compound followed by the 40 addition of PBS solution or 0.9% saline to achieve a concentration of 100 mg/ml. If solubility was not observed the solution was diluted to concentrations of 50 mg/ml, 25 mg/ml and 4 mg/ml consecutively until complete solubility was observed.

Series [5] can be described thus: Chemical stability assessment in PBS at 37.5° C. (HPLC). It is filed as physicochemical. As to conditions: buffer, pH 6.2, read-out: Chemical stability at pH 6.2-7.2 (t1/2) (converted). On the procedure: Stability studies were carried out by dissolving 1-2 mg of compound in DMSO (1 mL) followed by addition of 0.4 mL of the resulting solution to stirred PBS solution (9.6 mL) at 37.5° C. A sample (ca. 0.5 mL) was immediately taken for HPLC analysis. Further samples were then taken for analysis at various timepoints thereafter. Half-lives were determined from the decrease in concentration of compound with respect to time.
Stability studies were performed by dissolving 1-2 mg of compound in DMSO (1 ml) followed by addition of 0.4 ml of the resulting solution to stirred PBS (9.6 ml) at 37.5° C. A sample (˜0.5 ml) was immediately taken for HPLC analysis. Further samples were then taken for analysis at various time-points thereafter. Half-lives were determined from the decrease in concentration of compound with respect to time.

T1 sequence (Q04IN8 whole entry): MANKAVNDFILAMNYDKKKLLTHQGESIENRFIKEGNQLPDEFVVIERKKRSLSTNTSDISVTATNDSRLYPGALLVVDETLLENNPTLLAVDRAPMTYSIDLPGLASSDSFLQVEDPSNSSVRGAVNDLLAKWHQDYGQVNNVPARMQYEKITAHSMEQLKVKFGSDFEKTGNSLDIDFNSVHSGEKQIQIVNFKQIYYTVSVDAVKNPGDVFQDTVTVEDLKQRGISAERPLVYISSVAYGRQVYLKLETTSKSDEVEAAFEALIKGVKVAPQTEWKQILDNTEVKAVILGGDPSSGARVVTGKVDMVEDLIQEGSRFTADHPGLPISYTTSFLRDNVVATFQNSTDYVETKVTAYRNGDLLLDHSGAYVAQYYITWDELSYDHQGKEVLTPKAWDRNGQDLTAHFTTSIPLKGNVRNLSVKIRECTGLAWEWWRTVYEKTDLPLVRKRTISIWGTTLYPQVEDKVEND

Turning to `COc1ccc(-n2c(C(=O)N(C)C)c(O)c(O)c2C(=O)N(C)C)cc1` [UL1-005, 3,4-Dihydroxy-1-(4-methoxyphenyl)-N^2,N^2,N^5,N^5-tetramethyl-1H-pyrrole-2,5-dicarboxamide], the IC50 at pneumolysin [1] (Table 1) is 200 nM; at pneumolysin [1] (Table 2), 200 nM; against pneumolysin [2] it was less than 490 nM. Also, the “Ciliary beating frequency (CBF) in the presence of pneumolysin” value at pneumolysin [3] is recorded as “No significant loss of the CBF”. For the same molecule, the “Solubility in 0.9% (w/v) saline, pH 6.5 or PBS pH 7.2” value in series [4] was “Not soluble”. The half-life in series [5] is less than 30 min.
